Assay results published in patent US5654280A, “Pharmaceutical composition” (Perstorp AB, priority 1989, dated 1997).
Structures can show the parent of a compound that is named as a salt.

What was measured:
[1] = tested on: binding sites for phosphorylated compounds in membrane preparation from rat brains; experiment: Displacement of tritiated D-myo-inositol-1,3,4,5-tetraphosphate (IP4) from rat brain membrane preparation; details: rat brain plasma membrane fragments saturated with tritiated IP4; remaining radioactivity after addition of compound and washing
Excerpt: A membrane preparation was obtained from rat brains in a way suitable to provide membrane fragments from plasma membranes. From earlier studies these membrane preparations are known to comprise binding sites for phosphorylated compounds. The physiological role of these binding sites are to regulate for example vascular leakage and oedema formation in the body. The degree of binding of a specific compound to these binding sites predicts the efficiency to counteract vascular leakage in vivo.
The membrane preparation was first saturated with a tritiated control compound. The control compound was D-myo-inositol-1,3,4,5-tetraphosphate (IP4). Addition of a further compound having, increased binding properties, compared to the control compound, will result in a replacement of the control compound and thus in a reduction of the radioactivity in the sample.
The 1,5-anhydro-D-arabinitol-2,3,4-trisphosphate pentakis (cyclohexylammonium) salt obtained in Example 2 was added to a membrane preparation as described above. After washing, the radioactivity was 30% compared to the control compound (IP4), thus showing a significant binding to the preparation.

[2] = molecular target: membrane preparation from rat hearts (binding sites of D-myo-inositol-1,2,6-triphosphate); experiment: Displacement of tritiated D-myo-inositol-1,2,6-triphosphate from rat heart membrane preparation; details: rat heart membranes, 60 minutes in ice, 50 mM HEPES pH 7.4
Description: A membrane preparation for binding experiments was prepared at 4° C. Remaining blood was removed from fresh rats hearts (approx. 25 g) and the hearts were minced on chilled plates and blended thoroughly with 20 volumes (v/w) of 0.32M sucrose. The mixture was homogenized using a glass homogenizer followed by centrifugation at 800 g for 10 minutes. The supernatant was thereafter recentrifuged at 21000 g for 20 minutes. The resulting pellets were suspended in 20 volumes of ice cold water before homogenization and centrifugation. The supernatant was collected by pipetting followed by recentrifugation. […]
The assay mixtures were incubated for 60 minutes in ice and binding reactions were terminated by centrifugation for 5 minutes. The surface of the pellets were washed with 1 ml of iced 50 mM HEPES buffer (pH 7.4) before measuring the incorporated radioactivity by means of a scintillation counter.
An IC50 value can be determined by calculation of the replacement ratio of the tritiated reference compound at different concentrations of the specific compound. This value represents the concentration needed to replace half the amount of the tritiated reference compound and is expressed as log (conc. of compound). […] Following the above described procedure the binding properties of 1,5-anhydro-D-arabinitol-2,3,4-trisphosphate was determined. […]

O=P(O)(O)OC1[C@H](OP(=O)(O)O)COC[C@H]1OP(=O)(O)O [Example 2, 1,5-anhydro-D-arabinitol-2,3,4-trisphosphate pentakis (cyclohexylammonium) salt]
radioactivity after washing compared to the control compound (IP4) [1]: 30%

O=P(O)(O)OC1[C@H](OP(=O)(O)O)COC[C@H]1OP(=O)(O)O [1,5-anhydro-D-arabinitol-2,3,4-trisphosphate]
IC50 value (concentration needed to replace half the amount of the tritiated reference compound) [2]: -6.9 log (conc. of compound)
